Active and inactive are the calls of the source. The rule behind the calls is not given here.
Legend:
Human adenovirus 5 [1] = experiment: Antiviral activity against Human adenovirus 5 infected in HEK293beta5 cells coexpressing GFP assessed as inhibition of plaque formation incubated for 7 days; assay type: functional, organism-based; settings: Human mastadenovirus C, 168 h
Human adenovirus 5 [2] = experiment: Antiviral activity against Human adenovirus 5 infected in HEK293beta5 cells coexpressing GFP assessed as inhibition of plaque formation at 10 uM incubated for 7 days relative to control; assay type: functional; settings: Human mastadenovirus C, 168 h
Human adenovirus 5 [3] = experiment: Antiviral activity against Human adenovirus 5 infected in A549 cells assessed as nuclear associated viral DNA copies at 50 uM incubated for 45 mins by qRT-PCR analysis; assay type: functional, organism-based
[4] = Selectivity Index, ratio of CC50 for human A549 cells to IC50 for Human adenovirus 5 infected in HEK293beta5 cells coexpressing GFP; assay type: toxicity, cell-based; settings: read-out: Ratio CC50/IC50
[5] = Cytotoxicity against human A549 cells assessed as reduction in cell viability incubated for 48 hrs by alamarBlue assay; assay type: cell-based
Human adenovirus 5 [6] = experiment: Antiviral activity against Human adenovirus 5 infected in A549 cells assessed as decrease in […] cDNA copies at 50 uM incubated for 24 hrs by qRT-PCR analysis; assay type: functional, organism-based
Human adenovirus 5 [7] = experiment: Antiviral activity against Human adenovirus 5 infected in A549 cells assessed as fold reduction in virus yield at 50 uM incubated for 48 hrs by endpoint dilution method relative to control; assay type: functional
Human betaherpesvirus 5 = experiment: Antiviral activity against Human cytomegalovirus infected in MRC5 cells assessed as decrease in viral DNA copies at 50 uM incubated for 72 hrs by qRT-PCR analysis; assay type: functional, organism-based
Human adenovirus 5 [8] = experiment: Antiviral activity against Human adenovirus 5 infected in A549 cells assessed as decrease in […] cDNA copies incubated for 24 hrs by qRT-PCR analysis; assay type: functional, organism-based
[9] = Stability in Syrian hamster serum assessed as parent compound remaining at 1 uM measured after 120 mins by LC-MS/MS analysis; assay type: ADME, cell-free, Mesocricetus auratus; settings: read-out: Stability
[10] = Stability in Syrian hamster serum assessed as parent compound remaining at 1 uM measured after 15 mins by LC-MS/MS analysis; assay type: ADME, cell-free, Mesocricetus auratus; settings: for remaining at 0.25 h, 1 µM: read-out: Stability
[11] = Stability in Syrian hamster serum assessed as parent compound remaining at 1 uM measured immediately by LC-MS/MS analysis; assay type: ADME, cell-free, Mesocricetus auratus; settings: read-out: Stability
[12] = Stability in Syrian hamster serum assessed as parent compound remaining at 1 uM measured after 30 mins by LC-MS/MS analysis; assay type: ADME, cell-free, Mesocricetus auratus; settings: for remaining at 0.5 h, 1 µM: read-out: Stability
[13] = Stability in Syrian hamster serum assessed as parent compound remaining at 1 uM measured after 60 mins by LC-MS/MS analysis; assay type: ADME, cell-free, Mesocricetus auratus; settings: read-out: Stability

| SMILES | IC50 (Human adenovirus 5 [1]) [µM] | inhibition at 10 µM (Human adenovirus 5 [2]) [%] | Activity (Human adenovirus 5 [3]) | selectivity ratio [4] | CC50 at 48 h [5] [µM] | Activity (Human adenovirus 5 [6]) | fold change (FC) (Human adenovirus 5 [7]) | Activity (Human betaherpesvirus 5) | Activity (Human adenovirus 5 [8]) | remaining at 2 h, 1 µM [9] [%] | Stability ([10]; 0.25 h, 1 µM) [%] | remaining at 0 min, 1 µM [11] [%] | Stability ([12]; 0.5 h, 1 µM) [%] | remaining at 1 h, 1 µM [13] [%] | remaining at 0.25 h, 1 µM [10] [%] | remaining at 0.5 h, 1 µM [12] [%] |
| --- | --- | --- | --- | --- | --- | --- | --- | --- | --- | --- | --- | --- | --- | --- | --- | --- |
| CC1CN(C(=O)Cc2ccccc2)CCN1C(=S)Nc1ccc(C#N)cc1 (stereo not drawn) | 4.6 | 98.4 | Active | 38 | 175 | inactive | 18.4 | Active |  |  |  |  |  |  |  |  |
| CC1CN(C(=O)CC2CCCCC2)CCN1C(=S)Nc1ccc(C#N)cc1 (stereo not drawn) | 2.5 | 100 | Active | 77.2 | 193 |  | 9.3 |  |  |  |  |  |  |  |  |  |
| CC[C@H](C)[C@@H]1NC(=O)CNC(=O)[C@@H]2Cc3c([nH]c4cc(O)ccc34)[S@+]([O-])C[C@H](NC(=O)CNC1=O)C(=O)N[C@@H](CC(N)=O)C(=O)N1C[C@H](O)C[C@H]1C(=O)N[C@@H]([C@@H](C)[C@@H](O)CO)C(=O)N2 |  |  |  |  |  |  |  |  | Dose-dependent effect |  |  |  |  |  |  |  |
| CC1CN(C(=O)Cc2ccccc2)CCN1C(=S)Nc1ccc([N+](=O)[O-])cc1 (stereo not drawn) | 2 | 98.2 | Active | 105 | 210 | inactive | 25.6 | Active |  | 107 | 142.7 | 100 | 139.4 | 114 |  |  |
| O=C(Cc1ccccc1)N1CCN(C(=S)Nc2cc(C(F)(F)F)cc(C(F)(F)F)c2)C(c2ccccc2)C1 (stereo not drawn) | 0.7 | 100 | Active | 149 | 104 |  | 1690 |  |  | 100 |  | 100 |  | 90.5 | 97.2 | 110 |
| CC1CN(C(=O)OC(C)(C)C)CCN1C(=S)Nc1ccc(F)cc1 (stereo not drawn) | 1.8 | 92.9 | Active | 111 | 200 |  | 12.1 |  |  | 75.4 |  | 100 |  | 86.5 | 97.8 | 102 |
| O=C(Cc1ccccc1)N1CCN(C(=O)Nc2ccccc2[N+](=O)[O-])C(c2ccccc2)C1 (stereo not drawn) | 2.1 | 96.9 | Active | 57.4 | 120 |  | 32.9 | Active |  |  |  |  |  |  |  |  |
| Cc1ccc(NC(=S)N2CCN(C(=O)CC3CCCCC3)CC2C)cc1 (stereo not drawn) | 2.1 | 95.8 | Active | 58.2 | 122 | inactive | 39.1 | Active |  |  |  |  |  |  |  |  |
| CC1CN(C(=O)Cc2ccccc2)CCN1C(=S)Nc1cc(C(F)(F)F)cc(C(F)(F)F)c1 (stereo not drawn) | 5.1 | 73.4 | Active | 25.4 |  | Active | 33.4 | Active | Dose-dependent effect | 92.8 |  | 100 |  | 96.5 | 109 | 107 |
| CC(C)(C)OC(=O)N1CCN(C(=O)Nc2cc(C(F)(F)F)ccc2Cl)CC1 | 2.3 | 95 | Active | 87 | 200 |  | 18.7 | Active |  |  |  |  |  |  |  |  |
| CC1CN(C(=O)CC2CCCCC2)CCN1C(=S)Nc1ccc(F)cc1 (stereo not drawn) | 0.6 | 100 | Active | 238 | 143 |  | 30.5 |  |  | 67.3 |  | 100 |  | 85 | 117 | 96.4 |
| O=C(c1cc2ccccc2o1)N1CCN(C(=O)Nc2ccccc2[N+](=O)[O-])C(c2ccccc2)C1 (stereo not drawn) |  | 100 |  | 79 |  |  | 9.9 |  |  |  |  |  |  |  |  |  |
| O=C(CC1CCCCC1)N1CCN(C(=O)Nc2ccccc2[N+](=O)[O-])C(c2ccccc2)C1 (stereo not drawn) | 1.4 | 100 | Active | 80.1 | 112 |  | 15.2 | Active |  |  |  |  |  |  |  |  |
| Nc1ccn(C[C@@H](CO)OCP(=O)(O)O)c(=O)n1.O.O [CIDOFOVIR] | 24.1 | 3.51 |  |  | 50.6 |  | 82.5 |  |  |  |  |  |  |  |  |  |
| CC(C)(C)OC(=O)N1CCN(C(=O)Nc2ccc([N+](=O)[O-])cc2)CC1 | 2.7 | 91.5 | Active | 43.7 | 118 | inactive | 21.2 | Active |  |  |  |  |  |  |  |  |
